Like-named read-outs stand apart in the source and are kept apart here. Peptide text beside a SMILES is read from it.
Assays:
CMS5 = test: Tumor challenge / tumor rejection after peptide immunization, CMS5; type: in vivo, BALB/c mice
Protocol: Tumor challenge and representation of tumor growth. AUC as a tool to measure tumor growth has been described previously. Briefly, AUC was calculated by selecting “Curves & Regression” and then “Area under curve” from the “analyze” tool, using the Prism 5.0 (GraphPad Software, Inc., La Jolla, Calif.). Grubb' test was used to remove up to one outlier from each group.
Depletion of T cell subsets. Immunized mice were depleted of CD8 cells using anti-CD8 rat IgG2b monoclonal antibody 2.43), or depleted of CD4 cells using anti-CD4 rat IgG2b monoclonal antibody GK1.5. Depleting antibodies were given in PBS intraperitoneally two days before tumor challenge and every seven days for the duration of the experiment. First three injections of depleting antibodies were 250 μg per mouse and the later injections were 500 μg per mouse. For treatment with antagonistic antibodies, mice were treated with anti-CD25 antibody (clone PC61, 250 μg, two days before tumor challenge) or anti-CTLA-4 antibody (clone 9D9, 100 μg, seven days before and every three days after tumor challenge). The appropriate T cell sub-sets were depleted by over 95%.
Lack of immuno-protective activity of the strongest K^d-binding neo-epitopes. […]

CD8+ cells [1] = test: IFNγ ELISPOT on CD8+ cells of immunized mice; type: in vivo, BALB/c mice; settings: for ELISpot: mice immunized with mutant peptide; for CD8 T cell response of immunized mice: text, ELISPOT
Protocol: For the ELISPOT assays, the negative controls were CD8+ cells from immunized mice without peptide stimulation. […] The magnitude of responses was rated by mean spot numbers per million CD8+ cells: 5-10 (+); 11-20 (++); 21-50 (+++); 51-100(++++) and >100(+++++).
(§1) All 18 peptides were used to immunize BALB/c mice. The draining lymph nodes (dLNs) of immunized mice were harvested one week after the single immunization, and the cells were stimulated in vitro for 16 h without any added peptide, the mutant peptide used for immunization, or the corresponding wild type peptide. The CD8+ cells were analyzed for activation (CD44+) and effector function (intracellular IFNγ+). (see Materials and Methods regarding the details of FACS analysis.) All possible patterns of immune-reactivity were observed (FIG. 3A): no immune response (12/18), a mutant peptide-specific, i.e. tumor-specific immune response (5/18), and a cross-reactive response between the mutant and corresponding wild type peptides (1/18).

CD8+ cells [2] = test: Intracellular IFN-γ assay by FACS (ICS) on lymphocytes of immunized mice; type: in vivo, BALB/c mice; settings: for immunogenicity of WT counterpart (functional effector T cells): mice immunized with the WT counterpart of the named neo-epitope
Protocol: Intracellular IFN-γ assay by FACS and ELISPOT. Lymphocytes were incubated either with or without 1-10 μg/ml peptide. GolgiPlug (BD Biosciences, San Jose, Calif.) was added 1 h later. After incubation of 12 to 16 h, cells were stained for CD44 (clone IM7), CD4 (clone GK1.5) and CD8 (clone 53-6.7) (BD Biosciences, San Jose, Calif.), fixed and permeabilized using the Cytofix/Cytoperm™ kit (BD Biosciences, San Jose, Calif.), and stained for intracellular IFN-γ using Phycoerythrin-conjugated anti-mouse IFN-γ (clone XMG1.2, BD Biosciences, San Jose, Calif.). Cells were stained with 1 μl antibody/million cells in 50 μl staining buffer (PBS with 1% bovine serum albumin) and incubated for 20 min at 4° C. in the dark, or according to the manufacturer's instructions. Cells without peptide stimulation were used as a negative control, and the values for these controls was very close to the values seen with the negative control peptide. Typically, 95,000-129,000 lymphocytes (14,500-17,000 CD8+CD4− cells) were acquired. The background is consistently very low (10% of the signal).
as §1

H-2 K^d = target: T1, H-2 K^d (Mus musculus, UniProt P01902); test: Binding assays: inhibition of binding of a radiolabeled standard peptide to purified MHC molecules
T1 sequence (P01902 22-368): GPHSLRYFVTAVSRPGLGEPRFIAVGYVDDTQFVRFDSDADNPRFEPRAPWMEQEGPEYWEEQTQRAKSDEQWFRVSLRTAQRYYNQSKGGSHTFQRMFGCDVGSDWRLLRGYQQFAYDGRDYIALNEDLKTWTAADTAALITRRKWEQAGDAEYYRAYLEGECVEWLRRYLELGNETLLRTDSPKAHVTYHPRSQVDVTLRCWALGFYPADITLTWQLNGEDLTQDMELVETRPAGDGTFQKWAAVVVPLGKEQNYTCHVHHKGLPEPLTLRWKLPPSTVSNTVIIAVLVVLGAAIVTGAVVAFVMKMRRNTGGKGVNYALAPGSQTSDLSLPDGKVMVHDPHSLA
T1 sequence (P01887 21-119 partner): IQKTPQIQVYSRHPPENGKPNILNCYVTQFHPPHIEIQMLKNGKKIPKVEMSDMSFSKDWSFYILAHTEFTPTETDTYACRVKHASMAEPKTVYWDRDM
Protocol: Binding assays. Binding of peptides to H-2 K^d was determined using quantitative assays based on the inhibition of binding of a radiolabeled standard peptide to purified MHC molecules essentially as described previously. […] Under the conditions utilized, where [label]<[MHC] and IC50≥[MHC], the measured IC50 values are reasonable approximations of the dissociation constant values.

CSCC[C@H](NC(=O)[C@@H]1CCCN1C(=O)[C@@H](NC(=O)[C@H](Cc1ccc(O)cc1)NC(=O)[C@@H](N)CC(=O)O)C(C)C)C(=O)N[C@@H](CCC(=O)O)C(=O)N[C@@H](CCC(N)=O)C(=O)N1CCC[C@H]1C(=O)N[C@@H](CCCNC(=N)N)C(=O)O [Alkbh6.2, D(y/D)VPMEQPR] (H-DYVPMEQPR-OH; N-terminus and C-terminus assumed)
protection from tumor growth / tumor rejection (CMS5): representative neo-epitopes that do | ELISpot (CD8+ cells [1]): ++ (10-20 spots/10^6 CD8 = ++) | CD8 T cell response of immunized mice (CD8+ cells [1]): modest CD8 T cell response | CD8 T cell response by intracellular cytokine assay (CD8+ cells [2]): un-detectable by the intracellular cytokine assay

CC(C)C[C@H](NC(=O)[C@H](Cc1ccc(O)cc1)NC(=O)[C@@H](N)CC(C)C)C(=O)N[C@@H](CC(=O)O)C(=O)N[C@@H](CO)C(=O)N[C@@H](CCCCN)C(=O)N[C@@H](CO)C(=O)N[C@@H](CC(=O)O)C(=O)N[C@H](C(=O)N[C@H](C(=O)N[C@H](C(=O)O)C(C)C)[C@@H](C)O)[C@@H](C)O [Alms1.1]
immunogenicity of WT counterpart (functional effector T cells) (CD8+ cells [2]): elicited functional effector T cells in vivo

CC(C)C[C@H](NC(=O)[C@@H]1CCCN1C(=O)[C@@H](NC(=O)[C@H](CCCNC(=N)N)NC(=O)[C@H](CCCCN)NC(=O)[C@H](CC(C)C)NC(=O)[C@H](CC(C)C)NC(=O)[C@@H]1CCCN1C(=O)[C@@H](NC(=O)[C@H](Cc1ccc(O)cc1)NC(=O)[C@@H](N)Cc1ccc(O)cc1)C(C)C)C(C)C)C(=O)O [Alms1.2] (H-YYVPLLKRVPL-OH)
ELISpot (CD8+ cells [1]): ++ (10-20 spots/10^6 CD8 = ++) | IC50 (H-2 K^d): 1480 nM | IC50 (H-2 K^d; mutant peptide, read-out: Measured IC50 for K^d (Mut/WT): Mut): 421 nM | immunogenicity of WT counterpart (functional effector T cells) (CD8+ cells [2]): elicited functional effector T cells in vivo

CSCC[C@H](NC(=O)[C@H](CC(C)C)NC(=O)CNC(=O)[C@@H]1CCCN1C(=O)[C@H](Cc1ccccc1)NC(=O)[C@@H](NC(=O)[C@@H](N)CCC(N)=O)C(C)C)C(=O)N[C@@H](CCC(=O)O)C(=O)N[C@@H](CC(C)C)C(=O)O [Atxn10.1] (H-QVFPGLMEL-OH; N-terminus and C-terminus assumed)
protection from tumor growth / tumor rejection (CMS5): representative neo-epitopes that do | ELISpot (CD8+ cells [1]): +++ (21-50 spots/10^6 CD8 = +++) | CD8 T cell response of immunized mice (CD8+ cells [1]): modest CD8 T cell response | IC50 (H-2 K^d; WT counterpart peptide, read-out: Measured IC50 for K^d (Mut/WT): WT): 7050 nM | CD8 T cell response by intracellular cytokine assay (CD8+ cells [2]): un-detectable by the intracellular cytokine assay

CC[C@H](C)[C@H](NC(=O)[C@H](Cc1ccc(O)cc1)NC(=O)[C@@H](N)[C@@H](C)O)C(=O)N[C@@H](CCCNC(=N)N)C(=O)N1CCC[C@H]1C(=O)N[C@@H](Cc1ccccc1)C(=O)N[C@@H](CCC(=O)O)C(=O)N[C@H](C(=O)N[C@@H](CCCCN)C(=O)N[C@H](C(=O)O)C(C)C)[C@@H](C)O [Ccdc85c, TYIRP(f/L)ETKV] (H-TYIRPFETKV-OH)
immunogenicity of WT counterpart (functional effector T cells) (CD8+ cells [2]): elicited functional effector T cells in vivo

SIINFEKL (listed as Gallus gallus) [reference compound]
CD8 response after second immunization (Prime vs Boost) (CD8+ cells [2]; 100 μg peptide once or twice with a 29-day interval): amplified by a second immunization

Reference: patent US11338026B2, “Identification of immunologically protective neo-epitopes for the treatment of cancers” (THE UNIVERSITY OF CONNECTICUT, priority 2014, dated 2022)
